Assay in all cases: biochemical
Format in all cases: biochemical

Assay [1] concerns the target T1, 363 human kinases (including Aurora A/B/C) (Homo sapiens, UniProt O15146).
T1 sequence (O15146 24-869): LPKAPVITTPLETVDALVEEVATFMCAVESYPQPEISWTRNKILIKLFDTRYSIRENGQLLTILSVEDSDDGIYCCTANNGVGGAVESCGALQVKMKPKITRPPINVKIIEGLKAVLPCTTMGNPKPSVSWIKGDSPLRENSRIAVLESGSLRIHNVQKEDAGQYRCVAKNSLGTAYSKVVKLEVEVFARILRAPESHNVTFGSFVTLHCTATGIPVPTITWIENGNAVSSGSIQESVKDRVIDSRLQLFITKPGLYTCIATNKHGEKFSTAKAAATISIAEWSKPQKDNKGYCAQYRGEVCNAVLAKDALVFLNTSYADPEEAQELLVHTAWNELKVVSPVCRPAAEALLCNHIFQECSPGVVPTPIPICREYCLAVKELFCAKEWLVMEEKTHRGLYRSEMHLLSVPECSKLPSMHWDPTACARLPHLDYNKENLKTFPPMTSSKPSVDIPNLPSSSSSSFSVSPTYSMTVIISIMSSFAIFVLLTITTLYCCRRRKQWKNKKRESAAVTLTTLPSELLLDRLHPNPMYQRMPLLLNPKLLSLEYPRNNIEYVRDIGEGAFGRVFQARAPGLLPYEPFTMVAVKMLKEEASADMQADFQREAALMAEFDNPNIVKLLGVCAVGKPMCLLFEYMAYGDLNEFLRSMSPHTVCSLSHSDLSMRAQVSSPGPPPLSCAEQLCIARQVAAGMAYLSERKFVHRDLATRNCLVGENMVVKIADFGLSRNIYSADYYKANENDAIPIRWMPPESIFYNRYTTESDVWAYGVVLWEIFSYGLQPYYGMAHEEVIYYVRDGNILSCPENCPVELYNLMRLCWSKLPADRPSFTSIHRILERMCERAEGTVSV
Particulars: MUSK.
Text: (§1) However, the Aurora A/B selectivity ratios derived from our in vitro and in vivo data can be compared to prioritize inhibitors.

In assay [2] the target is 363 human kinases (including Aurora A/B/C) (Homo sapiens, UniProt P12931). The settings on record: c-Src, [ATP] 100 µM.
Chain of 363 human kinases (including Aurora A/B/C) (Homo sapiens, UniProt P12931) (P12931 whole entry): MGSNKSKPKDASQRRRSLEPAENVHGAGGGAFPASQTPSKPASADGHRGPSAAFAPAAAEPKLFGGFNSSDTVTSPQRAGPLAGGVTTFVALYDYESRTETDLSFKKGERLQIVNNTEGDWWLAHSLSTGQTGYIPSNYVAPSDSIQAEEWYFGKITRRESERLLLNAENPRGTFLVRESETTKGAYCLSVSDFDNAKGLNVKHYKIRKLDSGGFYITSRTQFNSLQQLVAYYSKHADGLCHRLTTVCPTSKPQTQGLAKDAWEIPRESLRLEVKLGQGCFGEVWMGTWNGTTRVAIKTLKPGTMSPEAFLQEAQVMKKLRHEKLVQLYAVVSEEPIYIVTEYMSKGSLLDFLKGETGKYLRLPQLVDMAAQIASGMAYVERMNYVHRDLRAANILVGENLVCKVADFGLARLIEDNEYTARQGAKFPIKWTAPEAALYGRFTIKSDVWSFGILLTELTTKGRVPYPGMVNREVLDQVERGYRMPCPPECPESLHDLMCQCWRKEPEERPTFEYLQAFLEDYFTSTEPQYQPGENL
Text: as §1
In assay [3] the target is 363 human kinases (including Aurora A/B/C) (Homo sapiens, UniProt Q9P1W9). Particulars: PIM2.
Text: as §1
Assay [4] deals with 363 human kinases (including Aurora A/B/C) (Homo sapiens, UniProt Q8N568). Particulars: DCAMKL2, [ATP] 100 µM.
Chain of 363 human kinases (including Aurora A/B/C) (Homo sapiens, UniProt Q8N568) (Q8N568 whole entry): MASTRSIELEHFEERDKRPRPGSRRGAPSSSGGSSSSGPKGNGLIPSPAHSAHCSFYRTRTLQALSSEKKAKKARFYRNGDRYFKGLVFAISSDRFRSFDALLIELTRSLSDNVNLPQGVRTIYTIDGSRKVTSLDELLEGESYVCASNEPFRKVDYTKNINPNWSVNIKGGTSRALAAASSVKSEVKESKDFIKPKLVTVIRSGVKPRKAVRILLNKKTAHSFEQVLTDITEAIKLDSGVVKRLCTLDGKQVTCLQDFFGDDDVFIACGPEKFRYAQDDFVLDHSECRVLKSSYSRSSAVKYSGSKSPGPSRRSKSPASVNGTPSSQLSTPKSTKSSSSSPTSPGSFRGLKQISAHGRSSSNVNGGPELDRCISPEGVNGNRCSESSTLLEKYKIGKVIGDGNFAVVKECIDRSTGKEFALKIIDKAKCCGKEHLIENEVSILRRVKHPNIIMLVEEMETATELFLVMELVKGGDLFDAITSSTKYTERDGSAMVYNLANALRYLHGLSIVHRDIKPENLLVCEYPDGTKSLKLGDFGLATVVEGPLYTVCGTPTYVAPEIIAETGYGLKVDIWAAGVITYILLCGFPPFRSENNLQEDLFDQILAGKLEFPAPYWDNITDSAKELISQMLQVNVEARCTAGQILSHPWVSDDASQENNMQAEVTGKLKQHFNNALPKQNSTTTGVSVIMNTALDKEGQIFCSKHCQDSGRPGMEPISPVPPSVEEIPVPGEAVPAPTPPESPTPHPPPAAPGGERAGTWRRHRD
Text: as §1
For assay [5], the target named is 363 human kinases (including Aurora A/B/C) (Homo sapiens, UniProt P07947). The settings on record: YES/YES1.
Chain of 363 human kinases (including Aurora A/B/C) (Homo sapiens, UniProt P07947) (P07947 whole entry): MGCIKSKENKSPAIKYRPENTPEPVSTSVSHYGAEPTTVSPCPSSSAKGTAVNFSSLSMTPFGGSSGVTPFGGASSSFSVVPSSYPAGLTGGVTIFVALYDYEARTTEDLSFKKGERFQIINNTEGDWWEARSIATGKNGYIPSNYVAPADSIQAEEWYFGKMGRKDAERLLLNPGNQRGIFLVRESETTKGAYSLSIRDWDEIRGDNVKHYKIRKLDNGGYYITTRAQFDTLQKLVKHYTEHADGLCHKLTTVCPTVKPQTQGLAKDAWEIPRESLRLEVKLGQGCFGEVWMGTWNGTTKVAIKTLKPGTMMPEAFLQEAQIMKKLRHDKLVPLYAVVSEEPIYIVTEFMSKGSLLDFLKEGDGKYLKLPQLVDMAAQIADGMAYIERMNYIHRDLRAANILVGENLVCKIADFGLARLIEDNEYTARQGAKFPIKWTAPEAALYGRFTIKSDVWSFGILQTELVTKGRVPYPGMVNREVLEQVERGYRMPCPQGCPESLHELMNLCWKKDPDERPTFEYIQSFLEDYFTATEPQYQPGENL
Text: as §1
The target of assay [6] is 363 human kinases (including Aurora A/B/C) (Homo sapiens, UniProt Q15208). Particulars: STK38/NDR1.
Chain of 363 human kinases (including Aurora A/B/C) (Homo sapiens, UniProt Q15208) (Q15208 whole entry): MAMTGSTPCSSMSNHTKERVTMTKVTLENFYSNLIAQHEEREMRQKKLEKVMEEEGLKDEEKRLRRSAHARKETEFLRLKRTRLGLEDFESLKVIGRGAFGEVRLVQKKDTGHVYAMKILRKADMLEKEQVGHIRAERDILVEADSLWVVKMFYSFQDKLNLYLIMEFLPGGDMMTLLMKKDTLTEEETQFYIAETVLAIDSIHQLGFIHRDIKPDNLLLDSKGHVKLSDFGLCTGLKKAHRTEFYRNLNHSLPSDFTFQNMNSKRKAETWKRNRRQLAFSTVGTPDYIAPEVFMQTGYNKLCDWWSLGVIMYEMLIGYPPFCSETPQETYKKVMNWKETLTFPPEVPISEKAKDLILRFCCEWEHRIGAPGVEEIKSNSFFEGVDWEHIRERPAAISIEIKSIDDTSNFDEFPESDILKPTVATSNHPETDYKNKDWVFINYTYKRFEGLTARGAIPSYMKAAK
Text: as §1
The target in assay [7] is 363 human kinases (including Aurora A/B/C) (Homo sapiens, UniProt P34947). Particulars: GRK5.
Chain of 363 human kinases (including Aurora A/B/C) (Homo sapiens, UniProt P34947) (P34947 whole entry): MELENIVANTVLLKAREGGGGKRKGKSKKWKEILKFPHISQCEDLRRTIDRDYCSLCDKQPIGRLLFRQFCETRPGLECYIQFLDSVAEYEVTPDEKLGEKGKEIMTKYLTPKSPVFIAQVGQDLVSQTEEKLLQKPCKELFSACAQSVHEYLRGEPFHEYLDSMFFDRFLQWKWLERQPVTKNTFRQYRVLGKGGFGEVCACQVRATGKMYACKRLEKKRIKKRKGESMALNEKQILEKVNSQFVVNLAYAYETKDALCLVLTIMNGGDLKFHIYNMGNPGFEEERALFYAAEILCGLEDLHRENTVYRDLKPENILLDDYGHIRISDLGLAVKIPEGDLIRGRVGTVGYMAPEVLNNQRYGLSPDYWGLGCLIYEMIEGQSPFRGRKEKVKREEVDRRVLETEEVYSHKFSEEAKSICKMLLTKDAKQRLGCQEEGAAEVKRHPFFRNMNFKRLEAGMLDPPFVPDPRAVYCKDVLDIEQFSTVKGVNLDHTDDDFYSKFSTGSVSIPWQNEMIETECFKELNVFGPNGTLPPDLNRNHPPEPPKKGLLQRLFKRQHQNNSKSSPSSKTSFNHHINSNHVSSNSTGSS
Text: as §1
Assay [8] deals with 363 human kinases (including Aurora A/B/C) (Homo sapiens, UniProt Q13557). Particulars: CAMK2d, [ATP] 30 µM.
Text: as §1
Assay [9] addresses T2, 363 human kinases (including Aurora A/B/C) (Homo sapiens, UniProt O14920).
T2 sequence (O14920 1-756): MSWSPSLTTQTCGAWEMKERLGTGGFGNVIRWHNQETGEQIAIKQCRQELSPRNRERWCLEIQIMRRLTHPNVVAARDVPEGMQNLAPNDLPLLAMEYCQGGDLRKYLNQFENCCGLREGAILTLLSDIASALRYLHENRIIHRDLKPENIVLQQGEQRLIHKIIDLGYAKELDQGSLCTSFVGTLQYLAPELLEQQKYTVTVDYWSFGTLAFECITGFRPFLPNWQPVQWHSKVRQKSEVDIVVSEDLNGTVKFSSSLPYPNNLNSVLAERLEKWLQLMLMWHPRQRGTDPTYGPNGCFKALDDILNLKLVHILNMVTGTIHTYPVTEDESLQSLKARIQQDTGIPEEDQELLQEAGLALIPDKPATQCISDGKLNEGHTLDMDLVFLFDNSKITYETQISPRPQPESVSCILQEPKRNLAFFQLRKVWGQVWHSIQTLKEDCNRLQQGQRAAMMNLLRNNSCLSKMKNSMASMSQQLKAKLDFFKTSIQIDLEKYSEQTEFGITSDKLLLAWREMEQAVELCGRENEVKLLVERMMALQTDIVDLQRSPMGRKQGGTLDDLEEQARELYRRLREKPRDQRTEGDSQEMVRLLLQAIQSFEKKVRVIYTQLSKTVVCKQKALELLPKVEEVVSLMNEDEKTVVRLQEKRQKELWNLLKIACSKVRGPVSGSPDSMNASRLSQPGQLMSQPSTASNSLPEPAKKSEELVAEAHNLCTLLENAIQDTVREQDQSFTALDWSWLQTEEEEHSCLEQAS
The settings on record: IKKb/IKBKB.
Text: as §1

Assay [10] addresses 363 human kinases (including Aurora A/B/C) (Homo sapiens, UniProt O75914). The settings on record: PAK3.
Text: as §1
The target in assay [11] is 363 human kinases (including Aurora A/B/C) (Homo sapiens, UniProt Q07002). The settings on record: CDK18/cyclin Y (PCTK3), [ATP] 50 µM.
Chain of 363 human kinases (including Aurora A/B/C) (Homo sapiens, UniProt Q07002) (Q07002 whole entry): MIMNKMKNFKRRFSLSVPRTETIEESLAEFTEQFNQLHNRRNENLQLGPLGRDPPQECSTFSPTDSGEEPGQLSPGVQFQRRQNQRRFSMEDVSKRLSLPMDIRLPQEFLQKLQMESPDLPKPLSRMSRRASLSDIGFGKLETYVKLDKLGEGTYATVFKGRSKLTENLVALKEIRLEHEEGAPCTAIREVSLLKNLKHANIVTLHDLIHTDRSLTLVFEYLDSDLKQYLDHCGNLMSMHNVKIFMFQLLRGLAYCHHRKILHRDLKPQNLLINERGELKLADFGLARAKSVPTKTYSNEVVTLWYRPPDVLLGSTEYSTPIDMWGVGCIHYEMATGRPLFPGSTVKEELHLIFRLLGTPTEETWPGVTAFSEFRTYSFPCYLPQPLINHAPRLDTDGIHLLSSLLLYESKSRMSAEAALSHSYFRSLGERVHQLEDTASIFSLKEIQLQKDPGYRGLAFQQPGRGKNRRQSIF
Text: as §1
Assay [12] has as its target 363 human kinases (including Aurora A/B/C) (Homo sapiens, UniProt P07949). Particulars: RET.
Text: as §1
Assay [13] addresses 363 human kinases (including Aurora A/B/C) (Homo sapiens, UniProt Q96GD4).
Text: as §1
Assay [14] concerns the target 363 human kinases (including Aurora A/B/C) (Homo sapiens, UniProt Q16644). The settings on record: MAPKAPK3.
Text: as §1
The target of assay [15] is 363 human kinases (including Aurora A/B/C) (Homo sapiens, UniProt Q9Y4K4). The settings on record: KHS/MAP4K5.
Chain of 363 human kinases (including Aurora A/B/C) (Homo sapiens, UniProt Q9Y4K4) (Q9Y4K4 whole entry): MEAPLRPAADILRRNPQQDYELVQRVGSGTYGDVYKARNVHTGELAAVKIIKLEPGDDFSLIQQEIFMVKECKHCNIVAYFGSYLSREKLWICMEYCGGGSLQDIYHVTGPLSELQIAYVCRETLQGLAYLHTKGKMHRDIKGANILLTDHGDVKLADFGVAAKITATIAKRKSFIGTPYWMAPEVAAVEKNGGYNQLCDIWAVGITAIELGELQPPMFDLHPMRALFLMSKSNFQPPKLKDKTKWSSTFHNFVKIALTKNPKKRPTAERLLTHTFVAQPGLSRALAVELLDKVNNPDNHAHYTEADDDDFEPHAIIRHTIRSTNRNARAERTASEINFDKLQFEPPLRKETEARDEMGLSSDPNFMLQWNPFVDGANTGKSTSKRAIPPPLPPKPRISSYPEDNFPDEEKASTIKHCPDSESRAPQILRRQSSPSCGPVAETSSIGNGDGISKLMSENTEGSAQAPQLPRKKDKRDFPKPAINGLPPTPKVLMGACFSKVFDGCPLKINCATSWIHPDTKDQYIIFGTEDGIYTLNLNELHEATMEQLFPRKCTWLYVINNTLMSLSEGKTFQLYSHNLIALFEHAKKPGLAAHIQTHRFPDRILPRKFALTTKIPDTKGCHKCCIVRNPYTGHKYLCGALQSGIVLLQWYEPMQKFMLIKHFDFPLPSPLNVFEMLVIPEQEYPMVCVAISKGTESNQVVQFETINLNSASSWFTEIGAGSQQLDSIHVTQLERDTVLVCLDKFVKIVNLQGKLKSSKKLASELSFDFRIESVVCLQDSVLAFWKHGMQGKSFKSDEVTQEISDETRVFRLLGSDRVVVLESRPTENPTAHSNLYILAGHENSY
Text: as §1
Where [16] appears, read: 500 nM, read-out: % Enzyme Activity (relative to DMSO controls).
[17] abbreviates: 100 nM, read-out: % Enzyme Activity (relative to DMSO controls).

Structures are written as SMILES.

The source of these data is publication PMC4685510, “A Cell Biologist’s Field Guide to Aurora Kinase Inhibitors” (Frontiers in Oncology, 2015).

Chain of 363 human kinases (including Aurora A/B/C) (Homo sapiens, UniProt Q96GD4) (Q96GD4 whole entry): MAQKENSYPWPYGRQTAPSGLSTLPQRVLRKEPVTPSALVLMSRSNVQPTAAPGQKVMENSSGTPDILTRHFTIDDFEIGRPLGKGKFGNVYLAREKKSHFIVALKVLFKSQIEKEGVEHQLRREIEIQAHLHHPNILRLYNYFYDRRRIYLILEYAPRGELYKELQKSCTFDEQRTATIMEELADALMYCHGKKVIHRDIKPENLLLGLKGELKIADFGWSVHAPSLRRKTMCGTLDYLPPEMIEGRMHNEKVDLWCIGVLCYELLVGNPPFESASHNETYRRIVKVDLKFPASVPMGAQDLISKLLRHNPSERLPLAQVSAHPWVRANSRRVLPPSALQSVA
Chain of 363 human kinases (including Aurora A/B/C) (Homo sapiens, UniProt Q16644) (Q16644 whole entry): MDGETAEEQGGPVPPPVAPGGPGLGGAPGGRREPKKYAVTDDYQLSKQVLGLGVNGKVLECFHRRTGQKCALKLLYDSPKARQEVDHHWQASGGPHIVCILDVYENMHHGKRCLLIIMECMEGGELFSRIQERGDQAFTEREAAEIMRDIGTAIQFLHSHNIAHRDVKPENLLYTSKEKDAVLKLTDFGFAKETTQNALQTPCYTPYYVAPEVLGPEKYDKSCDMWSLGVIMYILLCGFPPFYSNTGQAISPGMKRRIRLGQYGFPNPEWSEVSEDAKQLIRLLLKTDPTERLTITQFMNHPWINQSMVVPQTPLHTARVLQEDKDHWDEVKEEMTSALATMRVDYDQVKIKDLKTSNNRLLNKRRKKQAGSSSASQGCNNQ

`O=C(c1cccc(Cl)c1F)N1CCN(Cc2cccc(Nc3nccs3)n2)CC1` [MK-8745]: the “% Enzyme Activity (relative to DMSO controls)” value was found to be 94.70% in [1] (500 nM); 35.90% in assay [2] (500 nM); 93.64% in assay [3] (500 nM); 95.95% in assay [4] (500 nM); 33.63% in assay [5] (500 nM); 90.44% in assay [6] (500 nM). Moreover, the “% Enzyme Activity (relative to DMSO controls)” value in assay [7] (500 nM) stood at 94.27%; in [8] (500 nM), 97.95%; in assay [9] (500 nM), 112.10%; in assay [10] (500 nM) it was 91.67%; in assay [11] (500 nM), 106.28%; in assay [12] (500 nM), 84.03%. Moreover, the “% Enzyme Activity (relative to DMSO controls)” value in assay [13] (Aurora B, [ATP] 100 µM, 500 nM) worked out at 59.14%; in assay [14] (500 nM), 87.18%; in assay [15] (500 nM) it was 93.71%. The remaining activity at 0.5 µM was 95.3% in assay [1] (setting [16]); 36.4% in [2] (setting [16]); 93.8% in [3] (setting [16]); 96% in [4] (setting [16]); 34.6% in [5] (setting [16]); 91.2% in [6] (setting [16]). The remaining activity at 0.5 µM amounted to 95.8% in [7] (setting [16]); 98.5% in assay [8] (setting [16]); 119% in assay [9] (setting [16]); 94% in assay [10] (setting [16]); 107% in assay [11] (setting [16]); 84.5% in assay [12] (setting [16]). Also, the remaining activity at 0.5 µM in [13] (Aurora B, [ATP] 100 µM, 500 nM, read-out: % Enzyme Activity (relative to DMSO controls)) worked out at 62.3%; in assay [14] (setting [16]) it was 88.7%; in assay [15] (setting [16]) it was 94%.

In the case of `CCn1cc(-c2ccnc3[nH]c(-c4cccc(CN(C)C)c4)cc23)c(-c2ccc(NC(=O)N(C)C)cc2)n1` [GSK1070916], the remaining activity at 0.1 µM in assay [1] (setting [17]) came out at 96%; in [2] (setting [17]) it was 74.6%; in assay [3] (setting [17]) it was 87.2%; in assay [4] (setting [17]), 91.5%; in assay [5] (setting [17]), 69.3%; in assay [6] (setting [17]), 88%. Also, the remaining activity at 0.1 µM in [7] (setting [17]) came out at 96.3%; in assay [8] (setting [17]) it was 94.6%; in assay [9] (setting [17]), 126%; in assay [10] (setting [17]), 92.5%; in [11] (setting [17]), 107%; in assay [12] (setting [17]) it was 97.8%. Moreover, the remaining activity at 0.1 µM in assay [13] (read-out: % Enzyme Activity (relative to DMSO controls)) is 12.8%; in assay [14] (setting [17]) it was 93.8%; in assay [15] (setting [17]), 84%.
